Target: T1, murine MEKK2 (mMEKK2) (Mus musculus, UniProt Q61083)
T1 sequence (Q61083 1-619): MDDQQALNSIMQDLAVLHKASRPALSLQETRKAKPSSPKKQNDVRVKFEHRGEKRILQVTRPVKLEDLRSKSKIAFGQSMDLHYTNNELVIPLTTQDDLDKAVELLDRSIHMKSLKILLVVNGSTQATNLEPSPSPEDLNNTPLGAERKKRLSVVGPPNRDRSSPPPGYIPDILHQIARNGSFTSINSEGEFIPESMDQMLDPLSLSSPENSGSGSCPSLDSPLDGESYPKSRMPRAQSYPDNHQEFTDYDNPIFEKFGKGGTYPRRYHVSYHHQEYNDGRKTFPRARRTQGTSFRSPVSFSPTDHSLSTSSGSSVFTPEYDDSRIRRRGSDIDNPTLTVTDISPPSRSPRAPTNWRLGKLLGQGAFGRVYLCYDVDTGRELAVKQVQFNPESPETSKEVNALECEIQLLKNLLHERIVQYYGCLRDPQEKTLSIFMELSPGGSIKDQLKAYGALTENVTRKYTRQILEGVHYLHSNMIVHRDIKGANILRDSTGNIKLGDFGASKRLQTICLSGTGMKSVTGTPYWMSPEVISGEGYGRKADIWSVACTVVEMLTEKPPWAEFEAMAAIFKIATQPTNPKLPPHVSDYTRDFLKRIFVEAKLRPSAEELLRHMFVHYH
Test: TR-FRET kinase assay (mMEKK2/MBP)
Assay type: biochemical
Settings: substrate biotin MBP, 60 minutes at room temperature
Experimental: In one approach, MEKK2 inhibitory activity of compounds of the invention can be assessed using the time-resolved Fluorescence Resonance Energy Transfer (TR-FRET) assay detailed in Example 5. In this assay, the excitation energy of one fluorescent molecule (the donor) is transferred by a resonance mechanism to a nearby second fluorescent molecule (the acceptor), which then releases its fluorescent energy through fluorescent emission. This fluorescent energy is measured using a time-resolved fluorescence measurement protocol (LANCE high count 615/665); excitation occurred with 1,000 flashes at 325 nm, measurement was delayed by 100 μs, and data were acquired for 50 μs at 615 and 665 nm.
A TR-FRET kinase assay was used to screen potential inhibitors of MEKK2. The assay was performed as follows: Compounds to be tested were weighed and solubilized in DMSO (Sigma) to a stock concentration of 10 mM. Serial dilutions starting from 1 mM were prepared with additional DMSO. These dilutions were further diluted to 250 μM in kinase reaction buffer [20 mM Hepes pH 7.5, 5 mM MgCl2, 1 mM DTT (Dithiothreitol-Sigma), 1 mM NaVO4 (sodium vanadate-Sigma). A 25 μl aliquot of this solution was transferred to a black 96-well nonbinding surface microplate (Fisher). A stock aliquot containing […] of murine MEKK2 (mMEKK2) was diluted in the kinase reaction buffer and incubated with the compounds on the microplate for 10 minutes. A 25 μl aliquot of a 138 ng solution of biotin MBP (myelin basic protein—Upstate Biotechnology) was added to the reaction followed by 25 ul of a 25 ng solution of anti-phospho MBP antibody (Upstate Biotechnology) diluted in kinase reaction buffer. Finally an aliquot (50 μl) of a 5 uM solution of ATP (adenosine triphosphate) was added and the reaction was allowed to proceed for 60 minutes at room temperature. The reaction was stopped by the addition of 50 μL of a 12.5 ng solution of europium labeled anti-mouse IgG (Perkin Elmer) and 45 ng of Cy5 labeled streptavidin (Jackson Immunoresearch) in termination buffer (20 mM Hepes pH 7.5, 100 mM EDTA; Sigma). The assay was allowed to equilibrate for 45 minutes before placing the plate on the Victor™ plate reader. The plate was read using the 615/665 LANCE protocol.

| SMILES | IC50 |
| --- | --- |
| COc1cccc(-c2nc(SCc3ccc(NC(=O)c4ccc(F)c(C(F)(F)F)c4)cc3)[nH]c(=O)c2C#N)c1 [Example 2rr] | < 5 µM |
| COc1cccc(-c2nc(SCc3cccc(NC(=O)c4sccc4C)c3)[nH]c(=O)c2C#N)c1 [Example 2s] | < 10 µM |
| COc1cccc(-c2nc(SCc3ccc(NC(=O)c4cccc(C(F)(F)F)c4)cc3)[nH]c(=O)c2C#N)c1 [Example 2ss] | < 5 µM |
| COc1cccc(-c2nc(SCc3cccc(NC(=O)c4cnn(C)c4Cl)c3)[nH]c(=O)c2C#N)c1 [Example 2t] | < 40 µM |
| COc1cccc(-c2nc(SCc3ccc(NC(=O)c4ccc(Cl)c(Cl)c4)cc3)[nH]c(=O)c2C#N)c1 [Example 2tt] | < 1 µM |
| COc1cccc(-c2nc(SCc3cccc(NC(=O)c4ccc(OC)cc4OC)c3)[nH]c(=O)c2C#N)c1 [Example 2u] | < 20 µM |
| COc1cccc(-c2nc(SCc3ccc(NC(=O)c4cc(C)nn4C(C)(C)C)cc3)[nH]c(=O)c2C#N)c1 [Example 2uu] | < 20 µM |
| COc1cccc(-c2nc(SCc3cccc(NC(=O)c4csc(Cl)c4OC)c3)[nH]c(=O)c2C#N)c1 [Example 2v] | < 20 µM |
| COc1cccc(-c2nc(SCc3ccc(NC(=O)Cc4ccccc4)cc3)[nH]c(=O)c2C#N)c1 [Example 2vv] | < 20 µM |
| COc1cccc(-c2nc(SCc3cccc(NC(=O)c4cc(C)nn4C(C)(C)C)c3)[nH]c(=O)c2C#N)c1 [Example 2w] | < 40 µM |
| COc1cccc(-c2nc(SCc3ccc(NC(=O)c4c(F)cc(F)cc4F)cc3)[nH]c(=O)c2C#N)c1 [Example 2ww] | < 20 µM |
| COc1cccc(-c2nc(SCc3cccc(NC(=O)c4cc(Cl)nc(OC)c4)c3)[nH]c(=O)c2C#N)c1 [Example 2x] | < 10 µM |
| COc1cccc(-c2nc(SCc3ccc(NC(=O)C4CCN(c5nccc(C(F)(F)F)n5)CC4)cc3)[nH]c(=O)c2C#N)c1 [Example 2xx] | > 40 µM |
| COc1cccc(-c2nc(SCc3ccc(NC(=O)c4ccc(Cl)nc4)cc3)[nH]c(=O)c2C#N)c1 [Example 2yy] | < 20 µM |
| COc1cccc(-c2nc(SCc3ccc(NC(=O)c4cccnc4Oc4ccc(Cl)cc4)cc3)[nH]c(=O)c2C#N)c1 [Example 2zz] | > 40 µM |
| COc1cccc(-c2nc(SCc3ccc(NC(=O)Nc4cccc5nsnc45)cc3)[nH]c(=O)c2C#N)c1 [Example 3aa] | < 1 µM |
| COc1cccc(-c2nc(SCc3cccc(NC(=O)Nc4cc(F)cc(F)c4)c3)[nH]c(=O)c2C#N)c1 [Example 3b, 1-{3-[5-Cyano-4-(3-methoxy-phenyl)-6-oxo-1,6-dihydro-pyrimidin-2-ylsulfanylmethyl]-phenyl}-3-(3,5-difluoro-phenyl)-urea] | < 5 µM |
| COc1cccc(-c2nc(SCc3ccc(NC(=O)NC4CCNCC4)cc3)[nH]c(=O)c2C#N)c1 [Example 3bb] | > 40 µM |
| COc1cccc(-c2nc(SCc3cccc(NC(=O)NCc4ccccc4)c3)[nH]c(=O)c2C#N)c1 [Example 3c] | < 5 µM |
| COc1cccc(-c2nc(SCc3cccc(NC(=O)Nc4ccccc4)c3)[nH]c(=O)c2C#N)c1 [Example 3d] | < 5 µM |
| COc1cccc(-c2nc(SCc3cccc(NC(=O)NCCc4cccs4)c3)[nH]c(=O)c2C#N)c1 [Example 3e] | < 5 µM |
| COc1cccc(-c2nc(SCc3cccc(NC(=O)NC4CCCC4)c3)[nH]c(=O)c2C#N)c1 [Example 3f] | < 5 µM |
| COc1cccc(-c2nc(SCc3cccc(NC(=O)NCc4ccco4)c3)[nH]c(=O)c2C#N)c1 [Example 3g] | < 10 µM |
| COc1cccc(-c2nc(SCc3cccc(NC(=O)NCc4cc(OC)c(OC)c(OC)c4)c3)[nH]c(=O)c2C#N)c1 [Example 3i] | < 40 µM |
| COc1cccc(-c2nc(SCc3cccc(NC(=O)Nc4ccc5c(c4)OCCO5)c3)[nH]c(=O)c2C#N)c1 [Example 3j] | < 10 µM |
| COc1cccc(-c2nc(SCc3cccc(NC(=O)NCCc4ccc5c(c4)OCO5)c3)[nH]c(=O)c2C#N)c1 [Example 3k] | < 10 µM |

| SMILES | IC50 |
| --- | --- |
| COc1cccc(-c2nc(SCc3ccc(NC(=O)NCc4ccccc4)cc3)[nH]c(=O)c2C#N)c1 [Example 3l] | < 10 µM |
| COc1cccc(-c2nc(SCc3ccc(NC(=O)Nc4ccccc4)cc3)[nH]c(=O)c2C#N)c1 [Example 3m] | < 5 µM |
| COc1cccc(-c2nc(SCc3ccc(NC(=O)Nc4cccc(C#N)c4)cc3)[nH]c(=O)c2C#N)c1 [Example 3o] | < 20 µM |
| COc1cccc(-c2nc(SCc3ccc(NC(=O)Nc4ccc5c(c4)OCO5)cc3)[nH]c(=O)c2C#N)c1 [Example 3p] | < 20 µM |
| COc1cccc(-c2nc(SCc3ccc(NC(=O)Nc4c(Cl)cccc4Cl)cc3)[nH]c(=O)c2C#N)c1 [Example 3q] | > 40 µM |
| COc1cccc(-c2nc(SCc3ccc(NC(=O)Nc4cc(F)cc5c4OCOC5)cc3)[nH]c(=O)c2C#N)c1 [Example 3r] | < 5 µM |
| COc1cccc(-c2nc(SCc3ccc(NC(=O)Nc4ccc(Cl)c(C(F)(F)F)c4)cc3)[nH]c(=O)c2C#N)c1 [Example 3s] | < 5 µM |
| COc1cccc(-c2nc(SCc3ccc(NC(=O)Nc4cc(C(F)(F)F)ccc4Cl)cc3)[nH]c(=O)c2C#N)c1 [Example 3t] | < 5 µM |
| COc1cccc(-c2nc(SCc3ccc(NC(=O)Nc4cc([N+](=O)[O-])ccc4F)cc3)[nH]c(=O)c2C#N)c1 [Example 3u] | < 10 µM |
| COc1cccc(-c2nc(SCc3ccc(NC(=O)Nc4cccc(Oc5ccccc5)c4)cc3)[nH]c(=O)c2C#N)c1 [Example 3v] | < 1 µM |
| COc1cccc(-c2nc(SCc3ccc(NC(=O)NCCc4cccs4)cc3)[nH]c(=O)c2C#N)c1 [Example 3w] | < 5 µM |
| COc1cccc(-c2nc(SCc3ccc(NC(=O)Nc4cc(C(F)(F)F)cc(C(F)(F)F)c4)cc3)[nH]c(=O)c2C#N)c1 [Example 3x] | < 1 µM |
| COc1cccc(-c2nc(SCc3ccc(NC(=O)NC4CCCCC4)cc3)[nH]c(=O)c2C#N)c1 [Example 3y] | < 1 µM |
| COc1cccc(-c2nc(SCc3ccc(NC(=O)NC(c4ccccc4)c4ccccc4)cc3)[nH]c(=O)c2C#N)c1 [Example 3z] | < 1 µM |
| COc1cccc(-c2nc(SCc3cccc(NCc4ccc(OCCN(C)c5ccncc5)cc4)c3)[nH]c(=O)c2C#N)c1 [Example 4b] | > 40 µM |
| N#Cc1c(-c2cccc(Cn3cncn3)c2)nc(SCc2cccc(NC(=O)c3ccc(Cl)c(Cl)c3)c2)[nH]c1=O [Example 4bb] | > 40 µM |
| COc1cccc(-c2nc(SCc3cccc(NCC4CCN(c5ccncc5)CC4)c3)[nH]c(=O)c2C#N)c1 [Example 4c] | > 40 µM |
| N#Cc1c(-c2cccc(Cn3ccnc3)c2)nc(SCc2cccc(NC(=O)c3ccc(Cl)c(Cl)c3)c2)[nH]c1=O [Example 4cc] | > 40 µM |
| CCc1nc(C)c(CNc2cccc(CSc3nc(-c4cccc(OC)c4)c(C#N)c(=O)[nH]3)c2)[nH]1 [Example 4e] | > 40 µM |
| COc1cccc(-c2nc(SCc3cc(NCc4ccc(Cl)c(Cl)c4)ccc3O)[nH]c(=O)c2C#N)c1 [Example 4f] | < 5 µM |
| COc1cccc(-c2nc(SCc3cc(NCc4ccc(Cl)c(Cl)c4)cc([N+](=O)[O-])c3)[nH]c(=O)c2C#N)c1 [Example 4g] | < 5 µM |
| COc1cccc(-c2nc(SCCCCCn3cnc4c(NCc5ccccc5)ncnc43)[nH]c(=O)c2C#N)c1 [Example 4h] | > 40 µM |
| COc1cccc(-c2nc(SCCCn3cnc4c(NCc5ccccc5)ncnc43)[nH]c(=O)c2C#N)c1 [Example 4i] | > 40 µM |
| N#Cc1c(-c2cccc(C(=O)O)c2)nc(SCCCn2cnc3c(NCc4ccccc4)ncnc32)[nH]c1=O [Example 4j] | > 40 µM |
| N#Cc1c(-c2cccc(O)c2)nc(SCc2cccc(NCC3CCN(c4ccncc4)CC3)c2)[nH]c1=O [Example 4k] | > 40 µM |
| N#Cc1c(-c2cccc(O)c2)nc(SCc2cccc(NC(=O)c3ccc(Cl)c(Cl)c3)c2)[nH]c1=O [Example 4l] | < 5 µM |

— patent US20060100226A1, “2-Thiopyrimidinones as therapeutic agents” (priority 2004, published 2006)
